Results taken from PMC6222718, “Ethylenediamine Derived Carboxamides of Betulinic and Ursolic Acid as Potential Cytotoxic Agents” (Molecules : A Journal of Synthetic Chemistry and Natural …, 2018).

Experiments:
[1] = test system: MCF-7 (breast adenocarcinoma); experiment: SRB cytotoxicity assay, MCF-7; assay type: cell-based, human; conditions: for EC50: Homo sapiens, MCF7, SRB assay, 96 h of treatment, MCF-7; for Selectivity index (SI) MCF-7: SI = EC50 (NIH 3T3)/EC50 (MCF-7)
Experimental: (§1) The cytotoxicity of ursolic and betulinic carboxamides 3–30 was determined in sulforhodamine B (SRB) assays.
(§2) The cell lines used were human cancer cell lines: 518A2 (melanoma), A2780 (ovarian carcinoma), HT29 (colon adenocarcinoma), MCF-7 (breast adenocarcinoma), 8505C (thyroid carcinoma) and non-malignant mouse fibroblasts NIH 3T3. Cultures were maintained as monolayers in RPMI 1640 medium with L-glutamine (Capricorn Scientific GmbH, Ebsdorfergrund, Germany) supplemented with 10% heat inactivated fetal bovineserum (Sigma-Aldrich Chemie GmbH, Steinheim, Germany) and penicillin/streptomycin (Capricorn Scientific GmbH, Ebsdorfergrund, Germany) at 37 °C in a humidified atmosphere with 5% CO2.
(§3) The cytotoxicity of the compounds was evaluated using the sulforhodamine-B (Kiton-Red S, ABCR) micro culture colorimetric assay. Cells were seeded into 96-well plates on day 0 at appropriate cell densities to prevent confluence of the cells during the period of experiment. After 24 h, the cells were treated with 6 different concentrations (1, 3, 7, 12, 20 and 30 µM) minimum. The final concentration of DMSO/DMF never exceeded 0.5%, which was non-toxic to the cells. After a 96 h treatment, the supernatant medium from the 96-well plates was discarded, the cells were fixed with 10% trichloroacetic acid (TCA) and allowed to rest at 4 °C. After 24 h fixation, the cells were washed in a strip washer and dyed with SRB solution (100 µL, 0.4% in 1% acetic acid) for about 20 min. After dying, the plates were washed four times with 1% acetic acid to remove the excess of the dye and allowed to air-dry overnight. Tris base solution (200 µL, 10 mM) was added to each well and absorbance was measured at λ = 570 nm using a 96-well plate reader (Tecan Spectra, Crailsheim, Germany). The EC50 values were averaged from three independent experiments performed each in triplicate calculated from semi logarithmic dose response curves applying a non-linear 4P Hills-slope equation (GraphPad Prism5; variables top and bottom were set to 100 and 0, respectively).

[2] = test system: non-malignant mouse fibroblasts NIH 3T3; experiment: SRB cytotoxicity assay, NIH 3T3; assay type: cell-based; conditions: NIH3T3, 96 h of treatment
Experimental: as §1, §2, §3

[3] = test system: HT29 (colon adenocarcinoma); experiment: SRB cytotoxicity assay, HT29; assay type: cell-based, human; conditions: for EC50: Homo sapiens, HT-29, SRB assay, 96 h of treatment, HT29; for Selectivity index (SI) HT29: SI = EC50 (NIH 3T3)/EC50 (HT29)
Experimental: as §1, §2, §3

[4] = test system: 8505C (thyroid carcinoma); experiment: SRB cytotoxicity assay, 8505C; assay type: cell-based, human; conditions: for EC50: Homo sapiens, SRB assay, 96 h of treatment, 8505C; for Selectivity index (SI) 8505C: SI = EC50 (NIH 3T3)/EC50 (8505C)
Experimental: as §1, §2, §3

[5] = test system: A2780 (ovarian carcinoma); experiment: SRB cytotoxicity assay, A2780; assay type: cell-based, human; conditions: for EC50: Homo sapiens, SRB assay, 96 h of treatment, A2780; for Selectivity index (SI) A2780: SI = EC50 (NIH 3T3)/EC50 (A2780)
Experimental: as §1, §2, §3

[6] = test system: 518A2 (melanoma); experiment: SRB cytotoxicity assay, 518A2; assay type: cell-based, human; conditions: for EC50: Homo sapiens, SRB assay, 96 h of treatment, 518A2; for Selectivity index (SI) 518A2: SI = EC50 (NIH 3T3)/EC50 (518A2)
Experimental: as §1, §2, §3

Structure (SMILES)	EC50 [1] [µM]	Selectivity index (SI) MCF-7 [1]	EC50 [2] [µM]	EC50 [3] [nM]	Selectivity index (SI) HT29 [3]	melting point [°C]	EC50 [4] [µM]	Selectivity index (SI) 8505C [4]	EC50 [5] [µM]	Selectivity index (SI) A2780 [5]	EC50 [6] [µM]	Selectivity index (SI) 518A2 [6]
CC(=O)O[C@H]1CC[C@@]2(C)C(CC[C@]3(C)C2CC=C2C4[C@@H](C)[C@H](C)CC[C@]4(C(=O)NCCN(C)C)CC[C@]23C)C1(C)C (stereo partly drawn) [Compound 4, (3β)-N-[2-(Dimethylamino)ethyl]-3-acetyloxy-urs-12-en-28-amide]	3.3 ± 0.7	1.12	3.7 ± 0.2	3400 ± 300	1.09	121 to 124	8.3 ± 0.7	0.45	3.6 ± 0.4	1.03	5.3 ± 0.4	0.70
C=C(C)C1CC[C@]2(C(=O)NCCN(C)C)CC[C@]3(C)C(CCC4[C@@]5(C)CC[C@H](OC(C)=O)C(C)(C)C5CC[C@]43C)C12 (stereo partly drawn) [Compound 18, (3β)-N-[2-(Dimethylamino)ethyl]-3-acetyloxy-lup-20(29)-en-28-amide]	1 ± 0.3	1.00	1 ± 0.4	300 ± 20	3.33	108 to 110	1.4 ± 0.15	0.71	1.1 ± 0.05	0.91	1.3 ± 0.1	0.77
CC(=O)O[C@H]1CC[C@@]2(C)C(CC[C@]3(C)C2CC=C2C4[C@@H](C)[C@H](C)CC[C@]4(C(=O)NCCN4CCCC4)CC[C@]23C)C1(C)C (stereo partly drawn) [Compound 5, (3β)-N-(2-Pyrrolidin-1-ylethyl)-3-acetyloxy-urs-12-en-28-amide]	2.9 ± 0.7	1.14	3.3 ± 0.3	2100 ± 200	1.57	156 to 159	4.3 ± 0.2	0.77	3.1 ± 0.2	1.06	4.5 ± 0.2	0.73
C[C@@H]1CC[C@]2(C(=O)NCCN3CCCCC3)CC[C@]3(C)C(=CCC4[C@@]5(C)CC[C@H](O)C(C)(C)C5CC[C@]43C)C2[C@H]1C (stereo partly drawn) [Compound 13, (3β)-N-(2-Piperidin-1-ylethyl)-3-hydroxy-urs-12-en-28-amide]	11.1 ± 1.4	0.32	3.5 ± 0.6	8400 ± 700	0.42	120 to 124	11.1 ± 0.3	0.32	7.6 ± 0.6	0.46	12.6 ± 0.2	0.28
C[C@@H]1CC[C@]2(C(=O)NCCN3CCNCC3)CC[C@]3(C)C(=CCC4[C@@]5(C)CC[C@H](O)C(C)(C)C5CC[C@]43C)C2[C@H]1C (stereo partly drawn) [Compound 14, (3β)-N-(2-Piperazin-1-ylethyl)-3-hydroxy-urs-12-en-28-amide]	4.4 ± 0.1	1.50	6.6 ± 0.6	2800 ± 400	2.36	214 to 217	7.8 ± 0.5	0.85	4.9 ± 0.4	1.35	7 ± 0.4	0.94
C[C@@H]1CC[C@]2(C(=O)NCCOCCN)CC[C@]3(C)C(=CCC4[C@@]5(C)CC[C@H](O)C(C)(C)C5CC[C@]43C)C2[C@H]1C (stereo partly drawn) [Compound 16]	6.3 ± 0.6	1.19	7.5 ± 0.8	3100 ± 300	2.42	126 to 129	10.6 ± 1.1	0.71	6.5 ± 1.4	1.15	9.9 ± 0.2	0.76
